target: human fatty acid synthase FASN (Homo sapiens (Human), UniProt P49327); assay: Biochemical activity testing of human fatty acid synthase FASN (NADPH fluorescence intensity enzyme assay); conditions: human recombinant full-length fatty acid synthase
Summary of the method: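 In-house Sf9-expressed full-length enzyme (3 μL of 40 nM) in 50 mM potassium phosphate pH 7.0 with glutathione, BSA and Tween-20, plus NADPH (2 μL of 200 μM), preincubated ≥15 min with compound (10 concentrations from 30 μM final, 1% DMSO). Acetyl-CoA/malonyl-CoA added; NADPH fluorescence (ex 340/em 460 nm) read before and after 30 min at room temperature, difference used for IC50.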

Sequence of human fatty acid synthase FASN (P49327 whole entry): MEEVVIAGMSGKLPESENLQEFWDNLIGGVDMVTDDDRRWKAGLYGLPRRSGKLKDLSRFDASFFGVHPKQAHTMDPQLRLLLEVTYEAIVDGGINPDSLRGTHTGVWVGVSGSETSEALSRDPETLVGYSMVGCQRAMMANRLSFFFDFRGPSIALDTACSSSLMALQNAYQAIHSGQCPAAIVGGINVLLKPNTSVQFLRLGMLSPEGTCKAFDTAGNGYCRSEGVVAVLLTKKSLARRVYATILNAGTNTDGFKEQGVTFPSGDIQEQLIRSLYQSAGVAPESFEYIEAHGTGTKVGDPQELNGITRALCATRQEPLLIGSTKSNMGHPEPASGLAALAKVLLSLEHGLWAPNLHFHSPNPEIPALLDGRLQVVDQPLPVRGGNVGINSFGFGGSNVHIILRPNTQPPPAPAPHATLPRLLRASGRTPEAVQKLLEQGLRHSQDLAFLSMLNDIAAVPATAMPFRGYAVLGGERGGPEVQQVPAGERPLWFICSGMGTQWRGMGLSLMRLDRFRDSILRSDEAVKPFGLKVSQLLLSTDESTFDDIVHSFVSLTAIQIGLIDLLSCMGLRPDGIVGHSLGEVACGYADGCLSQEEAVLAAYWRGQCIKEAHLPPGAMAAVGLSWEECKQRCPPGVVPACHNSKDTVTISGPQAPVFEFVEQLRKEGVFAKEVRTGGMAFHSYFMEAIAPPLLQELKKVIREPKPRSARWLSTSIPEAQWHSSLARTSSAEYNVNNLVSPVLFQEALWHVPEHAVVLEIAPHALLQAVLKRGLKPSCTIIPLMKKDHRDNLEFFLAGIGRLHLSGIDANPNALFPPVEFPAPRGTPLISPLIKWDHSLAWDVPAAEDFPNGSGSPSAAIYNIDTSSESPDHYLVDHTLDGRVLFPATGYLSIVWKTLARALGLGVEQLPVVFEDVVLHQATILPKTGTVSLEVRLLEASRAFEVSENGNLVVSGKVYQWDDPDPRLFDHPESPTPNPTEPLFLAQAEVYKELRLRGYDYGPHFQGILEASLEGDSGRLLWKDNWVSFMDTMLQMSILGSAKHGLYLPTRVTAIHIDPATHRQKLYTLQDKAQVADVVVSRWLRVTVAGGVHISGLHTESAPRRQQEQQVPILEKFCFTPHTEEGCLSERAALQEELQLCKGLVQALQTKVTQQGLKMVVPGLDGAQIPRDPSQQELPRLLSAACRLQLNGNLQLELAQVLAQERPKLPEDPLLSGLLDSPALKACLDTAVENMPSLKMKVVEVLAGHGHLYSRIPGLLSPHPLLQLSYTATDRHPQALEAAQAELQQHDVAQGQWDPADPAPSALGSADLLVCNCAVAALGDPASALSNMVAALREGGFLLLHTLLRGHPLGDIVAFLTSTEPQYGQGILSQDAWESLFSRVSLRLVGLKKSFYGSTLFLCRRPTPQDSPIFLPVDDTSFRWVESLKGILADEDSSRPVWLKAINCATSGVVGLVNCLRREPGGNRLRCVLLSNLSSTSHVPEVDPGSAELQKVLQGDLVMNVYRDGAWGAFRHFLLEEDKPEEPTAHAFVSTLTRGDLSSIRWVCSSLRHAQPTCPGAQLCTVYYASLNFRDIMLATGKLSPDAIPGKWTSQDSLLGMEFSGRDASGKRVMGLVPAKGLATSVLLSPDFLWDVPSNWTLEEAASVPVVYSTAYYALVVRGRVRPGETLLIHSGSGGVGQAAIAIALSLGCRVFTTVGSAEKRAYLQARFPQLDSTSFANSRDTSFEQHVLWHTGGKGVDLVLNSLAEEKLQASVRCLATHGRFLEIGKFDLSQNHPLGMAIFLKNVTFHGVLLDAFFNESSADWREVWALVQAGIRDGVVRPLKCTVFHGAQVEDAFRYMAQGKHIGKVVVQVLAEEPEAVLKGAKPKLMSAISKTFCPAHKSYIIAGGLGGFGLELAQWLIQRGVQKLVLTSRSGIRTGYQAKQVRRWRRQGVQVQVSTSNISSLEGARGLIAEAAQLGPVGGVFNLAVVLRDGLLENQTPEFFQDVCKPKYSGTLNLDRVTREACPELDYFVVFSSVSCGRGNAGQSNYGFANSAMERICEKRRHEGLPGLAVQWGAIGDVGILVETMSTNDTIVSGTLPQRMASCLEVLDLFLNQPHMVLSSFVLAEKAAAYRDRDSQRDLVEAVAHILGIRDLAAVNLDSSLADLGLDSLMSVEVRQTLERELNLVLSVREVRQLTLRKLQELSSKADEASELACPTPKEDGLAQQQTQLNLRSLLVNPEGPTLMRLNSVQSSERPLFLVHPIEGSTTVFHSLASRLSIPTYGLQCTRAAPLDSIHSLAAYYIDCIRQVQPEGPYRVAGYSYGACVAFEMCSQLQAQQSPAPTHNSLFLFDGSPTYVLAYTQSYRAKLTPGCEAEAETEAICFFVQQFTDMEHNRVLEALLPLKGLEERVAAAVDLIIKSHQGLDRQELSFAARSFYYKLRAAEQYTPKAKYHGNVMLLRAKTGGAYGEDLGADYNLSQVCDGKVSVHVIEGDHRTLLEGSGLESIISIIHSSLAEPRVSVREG

| SMILES | IC50 |
| --- | --- |
| CC(=O)N[C@H](C(=O)N[C@H]1CC[C@@H](N(C)C(=O)c2ccc(-c3nc4ccccc4o3)cc2)C1)C(C)C [Compound A43, N-[(1R,3S)-3-((S)-2-acetylamino-3-methyl-butyrylamino)-cyclopentyl]-4-benzoxazol-2-yl-N-methyl-benzamide] | 300 to 3000 nM |
| CCC(=O)N[C@H]1CC[C@@H](N(C)C(=O)c2ccc(-c3cc(F)c4[nH]ccc4c3)nn2)C1 [Compound A136, 6-(7-fluoro-1H-indol-5-yl)-pyridazine-3-carboxylic acid methyl-((1R,3S)-3-propionylamino-cyclopentyl)-amide] | 300 to 3000 nM |
| CCC(=O)N[C@H]1CC[C@@H](N(C)C(=O)c2ccc(-c3cc(F)c(C#N)c(F)c3)cc2)C1 [Compound A61, 4′-cyano-3′,5′-difluoro-biphenyl-4-carboxylic acid methyl-((1R,3S)-3-propionylamino-cyclopentyl)-amide] | 3000 to 50000 nM |
| CCC(=O)N[C@H]1CC[C@@H](N(C)C(=O)c2ccc(-c3ccc4c(c3)C(F)(F)C(=O)N4)nc2)C1 [Compound A147, 6-(3,3-difluoro-2-oxo-2,3-dihydro-1H-indol-5-yl)-N-methyl-N-((1R,3S)-3-propionylamino-cyclopentyl)-nicotinamide] | 3000 to 50000 nM |
| CN(C(=O)c1ccc(-c2nc3ccccc3o2)cc1)[C@@H]1CC[C@H](NC(=O)C(F)(F)C(F)(F)F)C1 [Compound A25, 4-benzoxazol-2-yl-N-methyl-N-[(1R,3S)-3-(2,2,3,3,3-pentafluoro-propionylamino)-cyclopentyl]-benzamide] | 300 to 3000 nM |
| CCC(=O)N[C@H]1CC[C@@H](N(C)C(=O)c2ccc(-c3ccc4cnn(C)c4c3)cc2)C1 [Compound A74, N-methyl-4-(1-methyl-1H-indazol-6-yl)-N-((1R,3S)-3-propionylamino-cyclopentyl)-benzamide] | < 300 nM |
| CCC(=O)N[C@H]1CC[C@@H](N(C)C(=O)c2ccc(-c3cc(F)c4[nH]cc(C(N)=O)c4c3)c(F)c2)C1 [Compound A172, 7-fluoro-5-{2-fluoro-4-[methyl-((1R,3S)-3-propionylamino-cyclopentyl)-carbamoyl]-phenyl}-1H-indole-3-carboxylic acid amide] | 300 to 3000 nM |
| CCC(=O)N[C@@H]1CC[C@@H](N(C)C(=O)c2ccc(-c3nc4ccccc4o3)cc2)C1 [Compound A165, 4-benzoxazol-2-yl-N-methyl-N-((1R,3R)-3-propionylamino-cyclopentyl)-benzamide] | 3000 to 50000 nM |
| CCC(=O)N[C@H]1CC[C@@H](N(C)C(=O)c2cnc(-c3ccc4[nH]ccc4c3F)c(F)c2)C1 [Compound A143, 5-fluoro-6-(4-fluoro-1H-indol-5-yl)-N-methyl-N-((1R,3S)-3-propionylamino-cyclopentyl)-nicotinamide] | < 300 nM |
| CCC(=O)N[C@H]1CC[C@@H](N(C)C(=O)c2ccc(-c3ncc[nH]3)cc2)C1 [Compound A11, 4-(1H-imidazol-2-yl)-N-methyl-N-((1R,3S)-3-propionylamino-cyclopentyl)-benzamide] | 3000 to 50000 nM |
| CCC(=O)N[C@H]1CC[C@@H](N(C)C(=O)c2ccc(-c3nc4ccc(Cl)cc4o3)nc2)C1 [Compound A153, 6-(6-chloro-benzoxazol-2-yl)-N-methyl-N-((1R,3S)-3-propionylamino-cyclopentyl)-nicotinamide] | < 300 nM |
| CCC(=O)N[C@H]1CC[C@@H](N(C)C(=O)c2ccc(-c3ccc(F)cc3)cc2)C1 [Compound A53, 4′-fluoro-biphenyl-4-carboxylic acid methyl-((1R,3S)-3-propionylamino-cyclopentyl)-amide] | < 300 nM |
| CCC(=O)N[C@H]1CC[C@@H](N(C)C(=O)c2ccc(-c3ccc(C)cc3C)cc2)C1 [Compound A90, 2′,4′-dimethyl-biphenyl-4-carboxylic acid methyl-((1R,3S)-3-propionylamino-cyclopentyl)-amide] | < 300 nM |
| CCC(=O)N[C@H]1CC[C@@H](N(C)C(=O)c2ccc(-c3ccc4[nH]ccc4c3F)c(F)c2)C1 [Compound A151, 3-fluoro-4-(4-fluoro-1H-indol-5-yl)-N-methyl-N-((1R,3S)-3-propionylamino-cyclopentyl)-benzamide] | < 300 nM |

The next lines start with the values.

| IC50 | SMILES |
| --- | --- |
| < 300 nM | CCC(=O)N[C@H]1CC[C@@H](N(C)C(=O)c2ccc(-c3ccc4[nH]ccc4c3)cc2C)C1 [Compound A120, 4-(1H-indol-5-yl)-2,N-dimethyl-N-((1R,3S)-3-propionylamino-cyclopentyl)-benzamide] |
| < 300 nM | CCC(=O)N[C@H]1CC[C@@H](N(C)C(=O)c2ccc(-c3nc4cc(Cl)ccc4o3)cc2)C1 [Compound A9, 4-(5-chloro-benzoxazol-2-yl)-N-methyl-N-((1R,3S)-3-propionylamino-cyclopentyl)-benzamide] |
| < 300 nM | CCC(=O)N[C@H]1CC[C@@H](N(C)C(=O)c2ccc(-c3ccc4c(ccn4C)c3)cn2)C1 [Compound A110, 5-(1-methyl-1H-indol-5-yl)-pyridine-2-carboxylic acid methyl-((1R,3S)-3-propionylamino-cyclopentyl)-amide] |
| < 300 nM | CCC(=O)N[C@H]1CC[C@@H](N(C)C(=O)c2ccc(-c3ccc(Cl)cc3)cc2)C1 [Compound A5, 4′-chloro-biphenyl-4-carboxylic acid methyl-((1R,3S)-3-propionylamino-cyclopentyl)-amide] |
| < 300 nM | CCC(=O)N[C@H]1CC[C@@H](N(C)C(=O)c2ccc(-c3cc(C)c4[nH]ncc4c3)cn2)C1 [Compound A104, 5-(7-methyl-1H-indazol-5-yl)-pyridine-2-carboxylic acid methyl-((1R,3S)-3-propionylamino-cyclopentyl)-amide] |
| < 300 nM | CCC(=O)N[C@H]1CC[C@@H](N(C)C(=O)c2ccc(-c3ccc(OC(F)(F)F)c(F)c3)cc2)C1 [Compound A98, 3′-fluoro-4′-trifluoromethoxy-biphenyl-4-carboxylic acid methyl-((1R,3S)-3-propionylamino-cyclopentyl)-amide] |
| < 300 nM | CCC(=O)N[C@H]1CC[C@@H](N(C)C(=O)c2ccc(-c3cc4cc[nH]c4cc3F)cc2)C1 [Compound A122, 4-(6-fluoro-1H-indol-5-yl)-N-methyl-N-((1R,3S)-3-propionylamino-cyclopentyl)-benzamide] |
| < 300 nM | CCC(=O)N[C@H]1CC[C@@H](N(C)C(=O)c2ccc(-c3ccc4[nH]ccc4c3)cc2)C1 [Compound A95, 4-(1H-indol-5-yl)-N-methyl-N-((1R,3S)-3-propionylamino-cyclopentyl)-benzamide] |
| < 300 nM | CCC(=O)N[C@H]1CC[C@@H](N(C)C(=O)c2ccc(-c3ccc4[nH]ccc4c3F)cc2)C1 [Compound A116, 4-(4-fluoro-1H-indol-5-yl)-N-methyl-N-((1R,3S)-3-propionylamino-cyclopentyl)-benzamide] |
| < 300 nM | CN(C(=O)c1ccc(-c2nc3ccccc3o2)cc1)[C@@H]1CC[C@H](NC(=O)[C@@H]2CCCO2)C1 [Compound A41, (S)-tetrahydro-furan-2-carboxylic acid {(1S,3R)-3-[(4-benzoxazol-2-yl-benzoyl)-methyl-amino]-cyclopentyl}-amide] |
| < 300 nM | CCC(=O)N[C@H]1CC[C@@H](N(C)C(=O)c2ccc(-c3ccc(C#N)c(F)c3)cc2)C1 [Compound A71, 4′-cyano-3′-fluoro-biphenyl-4-carboxylic acid methyl-((1R,3S)-3-propionylamino-cyclopentyl)-amide] |
| < 300 nM | CCC(=O)N[C@H]1CC[C@@H](N(C)C(=O)c2ccc(-c3ccc4[nH]ncc4c3)cc2)C1 [Compound A84, 4-(1H-indazol-5-yl)-N-methyl-N-((1R,3S)-3-propionylamino-cyclopentyl)-benzamide] |
| < 300 nM | CCC(=O)N[C@H]1CC[C@@H](N(C)C(=O)c2ccc(-c3ccc(C(=O)OC)cc3F)cc2)C1 [Compound A97, 2-fluoro-4′-[methyl-((1R,3S)-3-propionylamino-cyclopentyl)-carbamoyl]-biphenyl-4-carboxylic acid methyl ester] |
| < 300 nM | CCC(=O)N[C@H]1CC[C@@H](N(C)C(=O)c2ccc(C#Cc3ccncc3)cc2)C1 [Compound A15, N-methyl-N-((1R,3S)-3-propionylamino-cyclopentyl)-4-pyridin-4-ylethynyl-benzamide] |
| < 300 nM | CC(=O)N[C@H]1CC[C@@H](N(C)C(=O)c2ccc(-c3nc4ccccc4o3)cc2)C1 [Compound A18, N-((1R,3S)-3-acetylamino-cyclopentyl)-4-benzooxazol-2-yl-N-methyl-benzamide] |
| < 300 nM | CCC(=O)N[C@H]1CC[C@@H](N(C)C(=O)c2ccc(-c3ccccc3)cc2)C1 [Compound A8, biphenyl-4-carboxylic acid methyl-((1R,3S)-3-propionylamino-cyclopentyl)-amide] |
| < 300 nM | CC(C)CCC(=O)N[C@H]1CC[C@@H](N(C)C(=O)c2ccc(-c3nc4ccccc4o3)cc2)C1 [Compound A19, 4-benzoxazol-2-yl-N-methyl-N-[(1R,3S)-3-(4-methyl-pentanoylamino)-cyclopentyl]-benzamide] |
| < 300 nM | CCC(=O)N[C@H]1CC[C@@H](N(C)C(=O)c2ccc(-c3nc4cccc(F)c4o3)cc2)C1 [Compound A49, 4-(7-fluoro-benzoxazol-2-yl)-N-methyl-N-((1R,3S)-3-propionylamino-cyclopentyl)-benzamide] |
| < 300 nM | CO[C@@H](C)C(=O)N[C@H]1CC[C@@H](N(C)C(=O)c2ccc(-c3nc4ccccc4o3)cc2)C1 [Compound A33, 4-benzoxazol-2-yl-N-[(1R,3S)-3-((S)-2-methoxy-propionylamino)-cyclopentyl]-N-methyl-benzamide] |
| < 300 nM | CCC(=O)N[C@H]1CC[C@@H](N(C)C(=O)c2ccc(-c3ccc4[nH]ccc4n3)cc2)C1 [Compound A129, N-methyl-N-((1R,3S)-3-propionylamino-cyclopentyl)-4-(1H-pyrrolo[3,2-b]pyridin-5-yl)-benzamide] |
